Results from patent publication US11685711B2, “Carbon monoxide-releasing molecules triggered by physiological stimuli” (Georgia State University Research Foundation, Inc., priority 2017, dated 2023).
Read-outs that look alike come from different tables or passages of the source.

Legend:
porcine liver esterase = experiment: CO release kinetics in the presence of porcine liver esterase (HPLC); type: in vitro ADME
Experimental: […] At each defined time point, 250 μL of the reaction mixture was taken out and added into a vial containing 500 μL ethanol. The mixture was incubated in an acetone dry ice bath (−78° C.) for 5 min, and centrifuged for 9 min (14.5×1000 rp) to precipitate the esterase out. The resulting supernatant was then analyzed by HPLC (column: Waters C18 3.5 μM, 4.6×100 mm, injection loop volume: 20 μL). […] The mobile phase was acetonitrile CH3CN/H2O (containing 0.05% trifluoroacetic acid).

Hela cells [1] = experiment: Crystal violet assay, co-treatment with doxorubicin; conditions: 24 h; for synergistic effects with Dox in killing Hela cells: co-treatment with Dox
Experimental: (§2) Towards this end, Hela cells and H9C2 cells were co-treated with 11/12 and Dox for 24 h. Then the cells were subjected to crystal violet assay for cytotoxicity evaluation. The cells treated with 11/12, or Dox only were used as controls. Additionally, the cells co-treated with Dox and compound 10a/11a/11b were employed as additional controls as well.
(§3) Hela cells and H9C2 cells were seeded in 96-well plates and cultured in DMEM supplemented with 10% FBS and 1% penicillin/streptomycin at 37° C. under 5% CO2 for 24 h. The cells were either incubated with doxorubicin (1% DMSO DMEM solution, 0 to 4 μM) or a mixture of doxorubicin and indicated compounds (1% DMSO DMEM solution, 0 to 4 μM for doxorubicin) for 24 h. After removal of the medium, the plate was washed with 150 μL/well of PBS and the cell was fixed with 4% paraformaldehyde for 1 h at room temperature. The solution in the well was then removed and 100 μL of 0.5% crystal violet staining solution was added to each well. After incubation for 15 min at room temperature, the plate was washed with 200 μL of DI water for each well twice, followed by the addition of 100 μL/well of acetic acid solution (33%) to dissolve the dye. Absorbance at 615 nm was then measured by using a Perkin Elmer 1420 multi-label counter. Cell viability was measured and the results were normalized to the vehicle group. The experiment was triplicated and the results are expressed as mean±SD (n=3).

[2] = Sensitivity of 11 to various ROS (HPLC, formation of 11a); type: physicochemical
Experimental: The CO release profiles in the absence/presence of ROS was studied using HPLC to monitor the consumption of 10/11 and the formation of 10a/11a. Various ROS solutions were prepared according to literature procedures. A solution of 11 (400 μL, 1 mM in acetonitrile (ACN) was added to 20 mL of PBS (pH 7.4, 10 mM). […] Additional ACN was added to make the final solution contain 10% of ACN. The resulting mixture was incubated at 37° C. for 30 min. CO release was monitored by the formation of 11a using HPLC. The experiment was triplicated, and the results are reported as mean±SD (n=3).

[3] = Stability in the absence of ROS (HPLC); type: physicochemical
Experimental: Initially, 11 was employed to screen its sensitivity towards various ROS. […] The stability was tested by adding a solution of 11/12 (800 μL, 500 μM in acetonitrile) was added to 20 mL of PBS (pH 7.4, 10 mM) in a vial. Additional acetonitrile was added to make the final concentration of ACN 10% for all solutions. The resulting solution was incubated at 37° C. for 48 h. The solution was then analyzed using HPLC. All the experiments were triplicated, and the results are reported as mean±SD (n=3).

physchem = type: physicochemical
Experimental: A solution of 10/11 (20 μM) and NaClO (40 or 60 μM) in 10% of ACN in PBS (pH=7.4) was sealed and incubated at 37° C. At each defined time point, 500 μL of the reaction mixture was taken out and added into a vial containing Na2SO3 (100 μL, 250 mM) to quench the reaction. The resulting solution was then analyzed by HPLC (column: Waters C18 3.5 μM, 4.6×100 mm, injection loop volume: 20 μL). CO release was determined by monitoring the formation of the product and the consumption of the reaction intermediate as in the case of 10 or prodrug 11. The mobile phase was acetonitrile ACN/H2O (containing 0.05% trifluoroacetic acid).

Raw264.7 cells = experiment: Fluorescent imaging of CO release of 11 with COP-1, with or without LPS; type: cell-based; conditions: Raw 264.7 cells, 11 50 μM + COP-1 1 μM + LPS 1 μg/mL, 5 hours
Experimental: For imaging studies of 11 in transformed macrophage cells, RAW 264.7 cells were seeded in 6-well plates one day before the imaging experiment. Compounds were dissolved in DMSO as stock solution. Final concentration of 1 μM COP-1, 50 μM of 11 and 1 μg/mL of LPS were added into the cell culture. The cells without 11 was used as the negative control. After adding the compound, the cells were incubated at 37° C. for 5 hours. The cells were then fixed and taken for fluorescent images under the FITC channel (excitation: 490 nm, emission: 525 nm) using a Zeiss fluorescent microscope.

H9C2 cells [4] = experiment: Fluorescent imaging of CO release of 11 with COP-1; type: cell-based; conditions: 11 50 μM + COP-1 1 μM
Experimental: (§1) Hela or H9C2 cells were seeded in 6-well plates one day before the imaging experiment. Compound 11 was dissolved in DMSO as stock solution. Final concentrations of 1 μM for COP-1 and […] were added into the cell culture. The sample without 11 was used as the negative control. After adding the compound, the cells were incubated at 37° C. for 5 hours. The cells were then fixed and taken for fluorescent images under the FITC channel (excitation: 490 nm, emission: 525 nm) using a Zeiss fluorescent microscope.

Hela cells [5] = experiment: Fluorescent imaging of CO release of 11 with COP-1; type: cell-based; conditions: 11 50 μM + COP-1 1 μM, 5 hours
Experimental: as §1

H9C2 cells [6] = experiment: Crystal violet assay, co-treatment with doxorubicin and cytotoxicity; type: cell-based
Experimental: as §2
Hela cells and H9C2 cells were seeded in 96-well plates and cultured in DMEM supplemented with 10% FBS and 1% penicillin/streptomycin at 37° C. under 5% CO2 for 24 h. The cells were either incubated with doxorubicin (1% DMSO DMEM solution, 0 to 4 μM) or a mixture of doxorubicin and indicated compounds (1% DMSO DMEM solution, 0 to 4 μM for doxorubicin) for 24 h. After removal of the medium, the plate was washed with 150 μL/well of PBS and the cell was fixed with 4% paraformaldehyde for 1 h at room temperature. The solution in the well was then removed and 100 μL of 0.5% crystal violet staining solution was added to each well. […] Absorbance at 615 nm was then measured by using a Perkin Elmer 1420 multi-label counter. Cell viability was measured and the results were normalized to the vehicle group. The experiment was triplicated and the results are expressed as mean±SD (n=3).

Hela cells [7] = tested on: Hela cells
Experimental: as §2, §3

Raw 264.7 cells = experiment: Cytotoxicity against Raw 264.7 cells (Cell Counting Kit-8); type: cell-based; conditions: concentrations up to 50 μM, 24 h of incubation
Experimental: All CO prodrugs were initially screened for their cytotoxicity against Raw 264.7 cells. […] Then RAW 264.7 cells were incubated in DMEM containing 1% DMSO and compounds (0-50 μM) for 24 hours. Then 10 μL of Cell Counting Kit-8 solution was added to each well and incubated for another three hours at 37° C. The absorbance at […] was measured by using a microplate reader.

[8] = CO release kinetics of 38 with or without H2O2 (HPLC); type: physicochemical; conditions: 20% of DMSO/PBS, 37° C., read-out: beta-elimination half-life (converted)
Experimental: Solutions of 38 (20 μM) in 20% of DMSO/PB S was incubated with or without H2O2 (270 μM) at 37° C. Aliquots were taken for HPLC analysis to determine CO release kinetics by monitoring the formation of compound 25. HPLC was conducted using a Waters C18 column (3.5 LM, 4.6x 100 mm) equipped with a 20-μL injection loop and acetonitrile:water (85:15) as the mobile phase.

With CC(C)(C)C(=O)OC(OC(=O)C(C)(C)C)C1C(S(=O)(=O)c2ccccc2)[C@]2(C)C(=O)[C@]1(C)C(c1ccccc1)=C2c1ccccc1 (stereo partly drawn) [Compound 24d, ((1S,4S)-1,4-Dimethyl-7-oxo-5,6-diphenyl-3-(phenylsulfonyl)bicyclo [2.2.1]hept-5-en-2-yl)methylene bis(2,2-dimethylpropanoate)] the esterase-mediated hydrolysis (porcine liver esterase; in the presence of PLE, after 24 h of incubation) was “no hydrolysis was observed”.

For CC(=O)OC(OC(C)=O)C1C(S(=O)(=O)c2ccccc2)[C@]2(C)C(=O)[C@]1(C)C(c1ccccc1)=C2c1ccccc1 (stereo partly drawn) [Compound 24a, ((1S,4S)-1,4-Dimethyl-7-oxo-5,6-diphenyl-3-(phenylsulfonyl)bicyclo [2.2.1]hept-5-en-2-yl)methylene diacetate], the “time to total consumption of prodrug (to form compound 23)” value (porcine liver esterase; porcine liver esterase (3 U/mL), 5% of DMSO in PBS (pH 7.4), 37° C.) was at most 2 min.

With COc1cccc2c1C(=O)c1c(O)c3c(c(O)c1C2=O)C[C@@](O)(C(=O)CO)C[C@@H]3O[C@H]1C[C@H](N)[C@H](O)[C@H](C)O1 [Dox, doxorubicin, reference compound] the viability at 2 µM (Hela cells [1]; Homo sapiens, HeLa, read-out: cell viability) was about 80%.

For COC(=O)C1([Se]c2ccccc2)CC2(C)C(=O)C1(C)C(c1ccccc1)=C2c1ccccc1 (stereo not drawn) [Compound 11, Methyl-1,4-dimethyl-7-oxo-5,6-diphenyl-2-(phenylselanyl)bicyclo[2.2.1]hept-5-ene-2-carboxylate], the “transformation within 30 min” value ([2]; hydrogen peroxide (H2O2, 1 mM), 37° C.) was “less than 5%”, the “transformation within 30 min” value ([2]; hydroxyl radical (HO., 500 μM), 37° C.) was “less than 5%” and the “time to complete transformation from 11 to 11a” value ([2]; hypochlorite (40 μM) at 37° C.) was 30 min. For the same compound, the “sensitivity towards ROS” value ([2]; hypochlorite (ClO−), singlet oxygen (1O2) and O2−, 37° C.) was “very sensitive”, the “transformation within 30 min” value ([2]; tert-butoxy radical (tBuO·, 500 μM), 37° C.) was “less than 5%” and the “transformation within 30 min” value ([2]; tert-butyl hydroperoxide (TBHP, 500 μM), 37° C.) was “less than 5%”. For the same compound, the “formation of 11a” value ([3]; absence of hypochlorite, 48 h of incubation) was “no formation of 11a was observed”, the half-life at 20 µM (physchem; pH 7.4) was about 30 s and the “intracellular CO release (green fluorescence) with LPS vs without LPS” value (Raw264.7 cells) was “significantly enhanced green fluorescence”. For the same compound, the “intracellular CO release” value (H9C2 cells [4]) was “negligible CO release”, the “intracellular CO release (green fluorescence) compared with H9C2 cells” value (Hela cells [5]) was “much enhanced green fluorescence” and the “synergistic effects with Dox in killing H9C2 cells” value (H9C2 cells [6]; H9C2 cells, co-treatment with Dox, 24 h) was “no synergistic effects were observed”. For the same compound, the “cell viability, compound only” value (Hela cells [7]) was “no decrease in cell viability was observed” and the “synergistic effects with Dox in killing Hela cells” value (Hela cells [1]; Hela cells) was “synergistically”.

With C[C@@]12C(=O)[C@](C)(C(c3ccccc3)=C1c1ccccc1)C(S(=O)(=O)c1ccccc1)C2C=O (stereo partly drawn) [Compound 7, (1S,4S)-1,4-dimethyl-7-oxo-5,6-diphenyl-3-(phenylsulfonyl)bicyclo-[2.2.1]hept-5-ene-2-carbaldehyde] the “cytotoxicity (cell viability)” value (Raw 264.7 cells) was “no cytotoxicity was observed”.

In the case of COC(=O)c1cc(C)c(-c2ccccc2)c(-c2ccccc2)c1C [Compound 11a, Methyl 3′,6′-dimethyl-[1,1′:2′,1″-terphenyl]-4′-carboxylate], the “synergistic effects with Dox in killing Hela cells” value (Hela cells [1]; Hela cells) is reported as “no synergistic effects were observed”.

For CC12CC([Se]c3ccccc3)C(C)(C1=O)C(c1ccccc1)=C2c1ccccc1 (stereo not drawn) [Compound 10, 1,4-dimethyl-2,3-diphenyl-5-(phenylselanyl)bicyclo[2.2.1]hept-2-en-7-one], the “half-life of selenoxide elimination / CO release” value (physchem; 20 µM, pH 7.4) was “around 4 h” and the “time to finish the oxidation step” value (physchem; initial hypochlorite concentration of 40 μM, 37° C.) was 30 s.

With Cc1ccc(C)c(-c2ccccc2)c1-c1ccccc1 [Compound 10a, 3′,6′-Dimethyl-1,1′:2′,1″-terphenyl] the “synergistic effects with Dox in killing Hela cells” value (Hela cells [1]; Hela cells) was “no synergistic effects were observed”.

In the case of CCCCCSC1C(C=O)C2(C)C(=O)C1(C)C(c1ccccc1)=C2c1ccccc1 (stereo not drawn) [Compound 38], the half-life at 20 µM ([8]; 20% DMSO in PBS with H2O2 (270 µM), H2O2 (270 μM)) is reported as about 1.5 h and the half-life at 20 µM ([8]; 20% DMSO in PBS, without H2O2) is reported as about 24 h.

In the case of CC12CC([Se]c3ccccc3)(C(=O)NCCC[P+](c3ccccc3)(c3ccccc3)c3ccccc3)C(C)(C1=O)C(c1ccccc1)=C2c1ccccc1 (stereo not drawn) [Compound 12, (3-(1,4-dimethyl-7-oxo-5,6-diphenyl-2-(phenylselanyl)bicyclo [2.2.1]hept-5-ene-2-carboxamido)propyl)triphenylphosphonium], the “stability in the absence of ROS” value ([3]; 10% ACN in PBS (pH 7.4), 37° C., 48 hours) is reported as “very stable”, the “cytotoxicity against H9C2 cells” value (H9C2 cells [6]; 5 μM, 24 h of incubation) is reported as “showed toxicity” and the cell viability (Hela cells [1]; Hela cells, 2 μM Dox in combination with 12 (2.5 μM)) is reported as “around 20%”. The “synergistic effects with Dox in killing Hela cells” value (Hela cells [1]; Hela cells) was “synergistically” and the “cell viability, compound only” value (Hela cells [1]; Hela cells, without Dox (0-μM group)) was “no decrease in cell viability was observed”.

For COC(=O)C1([Se]c2ccccc2)CC2(C)CC1(C)C(c1ccccc1)=C2c1ccccc1 (stereo not drawn) [Compound 11b, methyl 1,4-dimethyl-5,6-diphenyl-2-(phenylselanyl)bicyclo-[2.2.1]hept-5-ene-2-carboxylate, reference compound], the “synergistic effects with Dox in killing Hela cells” value (Hela cells [1]; Hela cells) was “no synergistic effects were observed”.
